{"source": "patent US20140011853A1", "about": "“SUBSTITUTED 3-(BIPHENYL-3-YL)-8,8-DIFLUORO-4-HYDROXY-1-AZASPIRO[4.5]DEC-3-EN-2-ONES FOR THERAPY” (BAYER INTELLECTUAL PROPERTY GMBH, priority 2011, published 2014)", "key": {"[1]": {"tested_on": "Tetranychus urticae", "experiment": "Tetranychus test, OP-resistant (TETRUR spray treatment)", "type": "in vivo", "details": "for effect (kill of spider mites) / pest or weed control at 100 g/ha: after 6 days; for pest or weed control at 100 g/ha: read-out: effect (kill of spider mites)"}, "[2]": {"tested_on": "Phaedon cochleariae", "experiment": "Phaedon test (PHAECO spray treatment)", "details": "for effect (kill of beetle larvae): 500 g/ha, after 7 days"}, "[3]": {"tested_on": "Myzus persicae", "experiment": "Myzus test (MYZUPE spray treatment)", "type": "in vivo", "details": "for effect (kill of aphids) / pest or weed control at 500 g/ha: 500 g/ha, after 6 days; for pest or weed control at 500 g/ha: read-out: effect (kill of aphids)", "description": "Disks of Chinese cabbage (Brassica pekinensis) infested by all stages of the green peach aphid (Myzus persicae) are sprayed with an active compound formulation of the desired concentration."}, "[4]": {"tested_on": "Spodoptera frugiperda", "experiment": "Spodoptera frugiperda test (SPODFR spray treatment)", "type": "in vivo", "details": "500 g/ha, after 7 days"}, "[5]": {"target": "human ACC2 (Homo sapiens, UniProt O00763)", "sequence (O00763 27-2458 limits assumed)": "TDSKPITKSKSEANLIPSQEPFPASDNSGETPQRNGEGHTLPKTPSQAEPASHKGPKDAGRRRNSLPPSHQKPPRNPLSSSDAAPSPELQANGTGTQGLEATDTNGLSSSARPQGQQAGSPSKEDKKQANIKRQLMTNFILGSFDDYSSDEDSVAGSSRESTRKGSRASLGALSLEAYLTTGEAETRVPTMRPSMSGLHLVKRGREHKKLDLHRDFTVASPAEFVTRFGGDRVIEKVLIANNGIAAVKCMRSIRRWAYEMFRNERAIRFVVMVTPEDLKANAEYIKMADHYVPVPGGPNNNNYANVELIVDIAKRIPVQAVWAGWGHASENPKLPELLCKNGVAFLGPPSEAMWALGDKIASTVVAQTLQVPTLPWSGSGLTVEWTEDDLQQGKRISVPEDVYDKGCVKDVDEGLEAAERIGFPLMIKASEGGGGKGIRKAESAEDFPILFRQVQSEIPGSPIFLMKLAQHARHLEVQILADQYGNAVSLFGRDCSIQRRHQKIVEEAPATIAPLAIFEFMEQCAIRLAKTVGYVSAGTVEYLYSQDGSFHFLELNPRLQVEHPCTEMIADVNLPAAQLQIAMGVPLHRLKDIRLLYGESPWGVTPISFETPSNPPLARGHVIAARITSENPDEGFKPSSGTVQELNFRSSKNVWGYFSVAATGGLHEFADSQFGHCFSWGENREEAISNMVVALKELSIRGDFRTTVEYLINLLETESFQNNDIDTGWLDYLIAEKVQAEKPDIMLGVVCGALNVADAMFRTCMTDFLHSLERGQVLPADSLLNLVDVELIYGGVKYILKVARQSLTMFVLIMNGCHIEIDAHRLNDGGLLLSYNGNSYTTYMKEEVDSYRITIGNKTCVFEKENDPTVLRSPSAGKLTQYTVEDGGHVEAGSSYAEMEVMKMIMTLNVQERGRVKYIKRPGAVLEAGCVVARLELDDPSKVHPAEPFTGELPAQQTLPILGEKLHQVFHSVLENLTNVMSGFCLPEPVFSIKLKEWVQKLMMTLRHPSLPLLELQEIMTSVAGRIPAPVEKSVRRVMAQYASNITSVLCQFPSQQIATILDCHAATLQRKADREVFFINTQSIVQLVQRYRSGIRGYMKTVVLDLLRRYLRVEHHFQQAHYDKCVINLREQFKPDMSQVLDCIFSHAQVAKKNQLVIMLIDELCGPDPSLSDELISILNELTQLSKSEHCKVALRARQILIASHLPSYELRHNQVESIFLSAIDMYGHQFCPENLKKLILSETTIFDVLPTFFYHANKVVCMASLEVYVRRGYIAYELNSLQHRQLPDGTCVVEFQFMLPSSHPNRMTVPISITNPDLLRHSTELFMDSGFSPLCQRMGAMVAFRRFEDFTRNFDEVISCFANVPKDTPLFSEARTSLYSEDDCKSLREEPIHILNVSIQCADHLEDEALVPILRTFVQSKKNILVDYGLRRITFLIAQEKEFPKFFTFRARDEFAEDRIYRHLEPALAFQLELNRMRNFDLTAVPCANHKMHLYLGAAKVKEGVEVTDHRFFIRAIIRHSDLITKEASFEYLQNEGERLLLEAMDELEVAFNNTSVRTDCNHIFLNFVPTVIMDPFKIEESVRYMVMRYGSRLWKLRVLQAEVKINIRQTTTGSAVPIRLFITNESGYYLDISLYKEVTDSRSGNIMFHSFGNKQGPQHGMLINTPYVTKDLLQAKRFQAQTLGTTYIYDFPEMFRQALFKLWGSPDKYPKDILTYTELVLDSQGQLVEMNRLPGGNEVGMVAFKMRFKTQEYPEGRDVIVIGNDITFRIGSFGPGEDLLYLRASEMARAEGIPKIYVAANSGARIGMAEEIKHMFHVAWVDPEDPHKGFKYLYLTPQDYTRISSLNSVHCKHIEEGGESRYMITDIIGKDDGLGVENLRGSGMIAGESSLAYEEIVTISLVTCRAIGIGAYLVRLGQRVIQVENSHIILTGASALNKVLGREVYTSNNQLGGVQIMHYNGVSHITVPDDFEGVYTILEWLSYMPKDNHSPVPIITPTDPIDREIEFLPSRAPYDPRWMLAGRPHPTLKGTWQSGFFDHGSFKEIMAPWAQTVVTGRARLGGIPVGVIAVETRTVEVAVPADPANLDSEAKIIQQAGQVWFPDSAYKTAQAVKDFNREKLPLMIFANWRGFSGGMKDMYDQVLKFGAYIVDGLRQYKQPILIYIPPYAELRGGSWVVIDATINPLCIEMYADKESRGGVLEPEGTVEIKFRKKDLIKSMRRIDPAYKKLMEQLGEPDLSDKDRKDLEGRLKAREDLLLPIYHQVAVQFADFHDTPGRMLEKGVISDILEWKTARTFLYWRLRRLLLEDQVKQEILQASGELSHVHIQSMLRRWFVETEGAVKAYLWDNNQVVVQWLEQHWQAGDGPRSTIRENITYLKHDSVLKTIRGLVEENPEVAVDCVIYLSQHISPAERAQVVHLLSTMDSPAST", "experiment": "Human ACC2 enzyme assay (ADP-Glo)", "details": "ACC 2 IC50, individual measurements"}, "[6]": {"target": "T1, human ACC1 (Homo sapiens, UniProt Q13085)", "T1 construct": "FLAG (C); made in house; host or cells: baculovirus-infected insect cells (Hi5)", "experiment": "Human ACC1 enzyme assay (ADP-Glo)", "type": "biochemical", "details": "individual measurements; read-out: ACC 1 IC50"}, "[7]": {"tested_on": "human ACC1", "experiment": "Human ACC1 enzyme assay (ADP-Glo)", "type": "biochemical"}, "[8]": {"target": "human serum albumin (HSA) (Homo sapiens, UniProt P02768)", "sequence (P02768 25-609)": "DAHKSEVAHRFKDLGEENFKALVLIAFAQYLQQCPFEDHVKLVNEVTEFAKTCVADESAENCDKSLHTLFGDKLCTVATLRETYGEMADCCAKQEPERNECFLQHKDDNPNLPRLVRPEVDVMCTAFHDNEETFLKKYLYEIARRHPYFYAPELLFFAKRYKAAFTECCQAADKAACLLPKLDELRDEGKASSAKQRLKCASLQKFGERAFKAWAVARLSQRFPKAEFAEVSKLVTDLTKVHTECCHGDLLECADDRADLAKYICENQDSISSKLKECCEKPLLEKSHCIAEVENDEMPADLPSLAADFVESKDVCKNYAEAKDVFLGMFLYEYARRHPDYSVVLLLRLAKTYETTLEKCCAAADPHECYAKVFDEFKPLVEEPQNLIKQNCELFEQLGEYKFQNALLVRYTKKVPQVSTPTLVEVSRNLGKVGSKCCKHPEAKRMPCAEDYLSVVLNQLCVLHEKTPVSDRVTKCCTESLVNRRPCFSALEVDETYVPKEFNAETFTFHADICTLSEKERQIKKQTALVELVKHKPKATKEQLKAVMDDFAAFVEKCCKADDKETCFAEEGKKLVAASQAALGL", "experiment": "Protein binding to human serum albumin (HSA-Transil)"}, "[9]": {"tested_on": "MCF7", "experiment": "Tumour cell proliferation, CellTiter-Glo, 96-hour incubation, MCF7", "type": "cell-based", "details": "Homo sapiens, MCF7, 96 h; read-out: MCF7 IC50", "protocol": "(§1) In accordance with the invention, the substances were tested in cell-based assays for the ability of the substances of inhibiting tumour cell proliferation after a 96-hour incubation with the substance. Cell viability was tested using the CellTiter-Glo® luminescent cell viability assay (Promega). The cells were sown at a density of 2000-5000 cells/well (depending on the cell line) in 100 μl growth medium on 96-well microtiter plates. For each cell line examined, cells were sown on a separate plate to determine the luminescence at t=0 hours and t=96 hours. After overnight incubation at 37° C., the luminescence values for the t=0 samples were determined. The dose plates for the t=96 hours points in time were treated with substances diluted with growth medium. The cells were then incubated at 37° C. for 96 hours, and the luminescence values for the t=96 hours samples were then determined. For data analysis, the t=0 values were subtracted from the t=96 hours values for treated and untreated samples. The differences in luminescence in percent between substance-treated samples and control values were used to determine the growth inhibition in percent.\n(§2) The substances were tested in the following cell lines which represent the stated indications in an exemplary manner: […]"}, "[10]": {"tested_on": "H460", "experiment": "Tumour cell proliferation, CellTiter-Glo, 96-hour incubation, H460", "type": "cell-based", "details": "Homo sapiens, NCI-H460, 96 h; read-out: H460 IC50", "protocol": "as §1, §2"}, "[11]": {"tested_on": "PC3", "experiment": "Tumour cell proliferation, CellTiter-Glo, 96-hour incubation, PC3", "type": "cell-based", "details": "Homo sapiens, PC-3, 96 h; read-out: PC3 IC50", "protocol": "as §1, §2"}, "[12]": {"tested_on": "KM12", "experiment": "Tumour cell proliferation, CellTiter-Glo, 96-hour incubation, KM12", "type": "cell-based", "details": "Homo sapiens, KM12, 96 h; read-out: KM12 IC50", "protocol": "as §1, §2"}, "[13]": {"experiment": "Membrane affinity logMA (MA-Transil)", "type": "physicochemical", "details": "buffer pH 7.4"}, "[14]": {"experiment": "Octanol/water distribution coefficient (logP/D), isocratic HPLC method", "type": "physicochemical", "details": "pH 7.4", "description": "Assay for Determining the Octanol/Water Distribution Coefficient (logP/D):\nThe distribution coefficient octanol/water P or D is a key parameter for estimating membrane penetration and permeability. It is defined as the ratio of the equilibrium concentrations of a substance in the two-phase system octanol/water.\nIt is usually stated in form of the decadic logarithm (logP or logD).\nlogP describes the distribution behaviour of a substance exclusively present in its neutral form. logD describes the distribution behaviour of a substance at a certain pH; depending on the ionization constant pKa of the substance, some of the substance may be present in ionic form, and some in neutral form.\nThe logP/D of the active compounds was determined using an isocratic HPLC method (HPLC=high performance liquid chromatography) (literature: OECD Guideline for Testing of Chemicals No. 117). The method is based on the correlation of the HPLC retention time of the test substance to that of reference substances with known distribution coefficients.\nThe test substance was employed as a 10 mM solution in DMSO (DMSO=dimethyl sulphoxide). 10 μl of this solution were made up to 100 μl with a methanol/water mixture in a ratio of 7+3.\nThe nine reference substances were dissolved individually in methanol. 100 μl each of the stock solutions were added to an HPLC vial and mixed with 300 μl of water.\nA formamide solution was used to determine the hold-up time. To this end, 7 mg of formamide were dissolved in 10 ml of methanol. 100 μl of this stock solution were mixed with 500 μl of methanol and 200 μl of water.\nAll solutions were chromatographed using a flow rate of 1.00 ml/min.\nInjection Protocol: formamide, references, test substance 1, test substance 2, . . . , formamide, references.\nEvaluation of the retention times was carried out in a diode array detector (DAD) at 200-400 nm Via the molecular mass, the identity of the test substance was checked using the downstream mass spectrometer.\nThe HPLC run was evaluated using the Waters software Masslynx 4.1.\nThe logP/D values were calculated using the software “POW Determination” (proprietary development)."}, "[15]": {"details": "Tetranychus urticae, 144 h, 100 g/ha"}}, "note": "Where “and” joins values, the source holds several entries; their conditions need not be identical. Equal entries are not always repeated."}
{"smiles": "Cc1cc(Cl)cc(C)c1C1=C(O)C2(CC=C(F)CC2)NC1=O", "note": "(stereo not shown) [Example I-1-a-13]", "values": [{"measurement": "effect (kill of spider mites)", "setting": "[1]; 100 g/ha", "result": 90, "unit": "%"}, {"measurement": "effect (kill of beetle larvae)", "setting": "[2]", "result": 100, "unit": "%"}, {"measurement": "effect (kill of aphids)", "setting": "[3]", "result": 100, "unit": "%"}]}
{"smiles": "Cc1ccc(Br)cc1C1=C(O)C2(CCC(F)(F)CC2)NC1=O", "note": "[Example I-1-a-14, 3-(5-Bromo-2-methylphenyl)-8,8-difluoro-4-hydroxy-1-azaspiro[4.5]dec-3-en-2-one]", "values": [{"measurement": "pest or weed control at 500 g/ha", "setting": "[3]; Myzus persicae, 144 h", "result": 100, "unit": "%"}]}
{"smiles": "CCc1cc(C)cc(C)c1C1=C(OC(=O)C(C)C)C2(CCC(F)(F)CC2)NC1=O", "note": "[Example I-1-b-1]", "values": [{"measurement": "pest or weed control at 100 g/ha", "setting": "[1]; [15]", "result": 100, "unit": "%"}, {"measurement": "pest or weed control at 500 g/ha", "setting": "[3]; Myzus persicae, 144 h", "result": 100, "unit": "%"}]}
{"smiles": "CCOC(=O)OC1=C(c2c(C)cc(C)cc2CC)C(=O)NC12CCC(F)(F)CC2", "note": "[Example I-1-c-1]", "values": [{"measurement": "pest or weed control at 100 g/ha", "setting": "[1]; [15]", "result": 100, "unit": "%"}, {"measurement": "pest or weed control at 500 g/ha", "setting": "[3]; Myzus persicae, 144 h", "result": 90, "unit": "%"}]}
{"smiles": "Cc1cc(C)c(C2=C(O)C3(CCC(F)(F)CC3)OC2=O)cc1C", "note": "[Example I-2-a-1]", "values": [{"measurement": "pest or weed control at 500 g/ha", "setting": "[3]; Myzus persicae, 144 h", "result": 100, "unit": "%"}]}
{"smiles": "Cc1ccc(-c2ccc(F)cc2)c(C)c1C1=C(O)C2(CCC(F)(F)CC2)OC1=O", "note": "[Example I-2-a-2]", "values": [{"measurement": "effect (kill of spider mites)", "setting": "[1]; 500 g/ha", "result": 100, "unit": "%"}, {"measurement": "effect (kill of caterpillars)", "setting": "[4]", "result": 100, "unit": "%"}, {"measurement": "effect (kill of beetle larvae)", "setting": "[2]", "result": 100, "unit": "%"}, {"measurement": "effect (kill of aphids)", "setting": "[3]", "result": 100, "unit": "%"}]}
{"smiles": "Cc1ccc(-c2ccc(Cl)cc2)cc1C1=C(O)C2(CCC(F)(F)CC2)OC1=O", "note": "[Example I-2-a-3]", "values": [{"measurement": "effect (kill of caterpillars)", "setting": "[4]", "result": 100, "unit": "%"}, {"measurement": "effect (kill of beetle larvae)", "setting": "[2]", "result": 100, "unit": "%"}, {"measurement": "effect (kill of aphids)", "setting": "[3]", "result": 90, "unit": "%"}]}
{"smiles": "Cc1cc(C)c(C2=C(O)C3(CCC(F)(F)CC3)OC2=O)c(C)c1", "note": "[Example I-2-a-4]", "values": [{"measurement": "effect (kill of beetle larvae)", "setting": "[2]", "result": 100, "unit": "%"}, {"measurement": "effect (kill of aphids)", "setting": "[3]", "result": 100, "unit": "%"}]}
{"smiles": "Cc1cc(C)c(C2=C(OC(=O)C(C)C)C3(CCC(F)(F)CC3)OC2=O)cc1C", "note": "[Example I-2-b-1]", "values": [{"measurement": "effect (kill of caterpillars)", "setting": "[4]", "result": 83, "unit": "%"}, {"measurement": "pest or weed control at 500 g/ha", "setting": "[3]; Myzus persicae, 144 h", "result": 100, "unit": "%"}]}
{"smiles": "Cc1ccc(-c2ccc(Cl)c(F)c2)cc1C1=C(O)[C@]2(CC[C@H](C(F)(F)F)CC2)NC1=O", "note": "[V.1-a, (5s,8s)-3-(4′-Chloro-3′-fluoro-4-methylbiphenyl-3-yl)-4-hydroxy-8-(trifluoromethyl)-1-azaspiro[4.5]dec-3-en-2-one, reference compound]", "values": [{"measurement": "IC50", "setting": "[5]", "result": "0.58 µM and 0.61 µM"}, {"measurement": "IC50", "setting": "[6]", "result": "0.067 µM and 0.059 µM"}, {"measurement": "Selectivity ACC1 vs. ACC2 (mean of the individual measurements ± standard deviation)", "setting": "[7]", "result": "9.4 ± 0.8"}, {"measurement": "Ratio of IC50s ACC2/ACC1 (respective measurement)", "setting": "[7]; pairwise, same dilution series", "result": "8.6 and 10.3"}, {"measurement": "Kd", "setting": "[8]", "result": 1.43, "unit": "µM"}, {"measurement": "IC50", "setting": "[9]", "result": 0.03, "unit": "µM"}, {"measurement": "IC50", "setting": "[10]", "result": 0.573, "unit": "µM"}, {"measurement": "IC50", "setting": "[11]", "result": 0.398, "unit": "µM"}, {"measurement": "IC50", "setting": "[12]", "result": 0.245, "unit": "µM"}, {"measurement": "logMA", "setting": "[13]", "result": "2.55 (2.4-2.7, n = 2)"}, {"measurement": "chromatographic logP", "setting": "[14]", "result": 2.55}]}
{"smiles": "Cc1ccc(-c2ccc(F)c(F)c2)cc1C1=C(O)C2(CCCCC2)NC1=O", "note": "[prior art WO 2008/067911 Table 1, reference compound]", "values": [{"measurement": "inhibition at 20 g/ha", "setting": "[1]; Tetranychus urticae, 144 h, read-out: % activity TETRUR", "result": 0, "unit": "%"}, {"measurement": "inhibition at 20 g/ha", "setting": "[2]; Phaedon cochleariae, 168 h, read-out: % activity PHAECO", "result": 0, "unit": "%"}, {"measurement": "inhibition at 20 g/ha", "setting": "[3]; Myzus persicae, 144 h, read-out: % activity MYZUPE", "result": 0, "unit": "%"}]}
